Results on eleven molecules are retold here after ChEMBL document CHEMBL1201862, “PubChem BioAssay data set” (2004).

The target in experiment [1] is Heat shock protein HSP 90-alpha (Homo sapiens, UniProt P07900). The format is functional, organism-based.
The nature of experiment [2]: Luminescence Cell-Based Dose Confirmation HTS to Identify Inhibitors of Polyadenylation. In kind it is functional.
Experiment [3] has as its target T1, Microphthalmia-associated transcription factor (Homo sapiens, UniProt O75030).
T1 sequence (O75030 whole entry): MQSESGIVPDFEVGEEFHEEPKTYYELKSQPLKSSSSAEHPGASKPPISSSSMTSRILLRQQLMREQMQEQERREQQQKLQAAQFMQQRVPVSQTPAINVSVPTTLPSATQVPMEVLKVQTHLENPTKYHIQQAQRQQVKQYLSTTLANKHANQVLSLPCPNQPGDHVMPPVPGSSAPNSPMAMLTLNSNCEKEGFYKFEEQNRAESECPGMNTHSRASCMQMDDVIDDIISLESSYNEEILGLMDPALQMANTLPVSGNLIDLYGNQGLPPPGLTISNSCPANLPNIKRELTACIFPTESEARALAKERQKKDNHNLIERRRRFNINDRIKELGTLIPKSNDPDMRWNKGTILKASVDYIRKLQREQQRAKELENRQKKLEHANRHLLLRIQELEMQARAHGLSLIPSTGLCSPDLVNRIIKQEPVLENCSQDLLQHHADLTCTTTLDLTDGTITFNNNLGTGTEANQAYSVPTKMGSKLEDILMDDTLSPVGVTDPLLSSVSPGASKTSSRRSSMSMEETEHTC
Kind of experiment: TRPM1 promoter luciferase signal decrease, dose response, MITF inhibitor project, cell-based, SK-MEL-5, cherry-picked, set 3 (AID 493073).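 Further: SK-MEL-5 melanoma cells with luciferase driven by the MITF target TRPM1 promoter.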 In kind it is functional.

A further experiment concerns the target Genome polyprotein (dengue virus type 2, UniProt P29990). Kind of experiment: Dengue-2 NS5 methyltransferase inhibitors, primary screen, biochemical, confirmation dose response (AID 588689). The format is functional.
A short description of experiment [4]: polyadenylation inhibitors in yeast reporter, dose response, luminescence, S. cerevisiae SKY197-pL101 (AID 2525). In kind it is functional, cell-based.
The nature of experiment [5]: Luminescence Cell-Based Dose Retest to Confirm Inhibitors of Cancer Stem Cells. [Related pubchem assays (depositor defined):AID2717, AID2721]. The format is functional. The following applies: Homo sapiens.
Experiment [6] deals with Intestinal-type alkaline phosphatase (Homo sapiens, UniProt P09923). Briefly: Dose Response confirmation of uHTS hits from a small molecule inhibitors of human intestinal alkaline phosphatase via a luminescent assay. [Related pubchem assays (depositor defined):AID2544, AID2574]. The format is functional.
Experiment [7] addresses T2, Dual specificity protein phosphatase 6 (Rattus norvegicus, UniProt Q64346).
T2 sequence (Q64346 whole entry): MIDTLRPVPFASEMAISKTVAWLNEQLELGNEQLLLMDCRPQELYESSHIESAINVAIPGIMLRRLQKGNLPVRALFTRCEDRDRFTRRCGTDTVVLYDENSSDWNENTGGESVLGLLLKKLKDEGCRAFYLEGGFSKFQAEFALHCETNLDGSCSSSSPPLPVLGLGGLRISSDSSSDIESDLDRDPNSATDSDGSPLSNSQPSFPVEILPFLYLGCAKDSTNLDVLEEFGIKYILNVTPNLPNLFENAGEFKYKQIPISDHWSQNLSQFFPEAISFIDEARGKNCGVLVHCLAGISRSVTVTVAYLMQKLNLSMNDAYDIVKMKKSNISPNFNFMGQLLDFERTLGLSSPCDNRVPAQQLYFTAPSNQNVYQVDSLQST
The format is functional.

Experiment [8] has as its target T3, Tyrosine-protein phosphatase non-receptor type 7 (Homo sapiens, UniProt P35236).
T3 sequence (P35236 whole entry): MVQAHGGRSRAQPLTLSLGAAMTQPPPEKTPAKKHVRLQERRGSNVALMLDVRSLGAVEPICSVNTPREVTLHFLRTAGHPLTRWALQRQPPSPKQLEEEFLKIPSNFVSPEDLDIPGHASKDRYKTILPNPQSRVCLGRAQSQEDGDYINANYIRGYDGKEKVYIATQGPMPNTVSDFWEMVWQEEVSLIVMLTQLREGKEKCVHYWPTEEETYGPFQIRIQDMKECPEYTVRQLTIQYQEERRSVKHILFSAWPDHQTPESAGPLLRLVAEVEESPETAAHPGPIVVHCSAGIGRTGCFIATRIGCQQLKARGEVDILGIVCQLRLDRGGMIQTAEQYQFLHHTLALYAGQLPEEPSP
The format is functional.

Experiment [9] concerns the target T2, Dual specificity protein phosphatase 6.
Experiment [10] has as its target Glyceraldehyde-3-phosphate dehydrogenase (Homo sapiens, UniProt P04406).
Experiment [11] in a line: HepG2 cell cytotoxicity, dose response, cytotoxicity control, plate reader, cherry-pick, antagonist series (AID 743416). In kind it is functional, cell-based.
Experiment [12] in a line: HEK293 cell cytotoxicity, dose response, cytotoxicity control, plate reader, cherry-picked samples (AID 743446). The format is functional, cell-based.
The nature of experiment [13]: LGR2 antagonists, dose response, cell-based, HEK293, CRE-luciferase reporter, cherry pick, set 2 (AID 743343).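 Further: transfected cells were stimulated with diluted bursicon conditioned medium after compound addition.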 The format is functional.
The target in experiment [14] is Neurotensin receptor type 1 (Homo sapiens, UniProt P30989). The format is functional.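 Further: Image-based confirmatory dose-response assay measuring agonist activity at NTR1; NTR1-expressing U2OS osteosarcoma cells imaged for beta-arrestin GFP spot formation; agonist potency where compounds increase beta-arrestin recruitment.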
Experiment [15] in a line: A549 cell cytotoxicity, dose response, cytotoxicity control, plate reader, cherry-pick, antagonist series (AID 743412). In kind it is functional, cell-based.
Experiment [16] has as its system Streptococcus. Kind of experiment: Group A Streptococcus viability loss, dose response, counter-screen for streptokinase expression inhibitor project, luminescence, BacTiterGlo (AID 1915).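 Further: potency for reduction of bacterial viability or growth.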 The format is functional, organism-based.
Experiment [17] deals with Streptococcus. Briefly: Luminescence Microorganism-Based Dose Response Follow up to Identify Compounds Cytotoxic to Streptococcus. [Related pubchem assays: 1677 (Project Summary), 1915, 1914, 1902 (Retest at Dose), 1900 (Counter Screen), 1662 (Primary HTS)]. The format is functional, organism-based.
The target of the next experiment is T4, Streptokinase A (Streptococcus pyogenes serotype M1, UniProt P10520).
T4 sequence (P10520 whole entry): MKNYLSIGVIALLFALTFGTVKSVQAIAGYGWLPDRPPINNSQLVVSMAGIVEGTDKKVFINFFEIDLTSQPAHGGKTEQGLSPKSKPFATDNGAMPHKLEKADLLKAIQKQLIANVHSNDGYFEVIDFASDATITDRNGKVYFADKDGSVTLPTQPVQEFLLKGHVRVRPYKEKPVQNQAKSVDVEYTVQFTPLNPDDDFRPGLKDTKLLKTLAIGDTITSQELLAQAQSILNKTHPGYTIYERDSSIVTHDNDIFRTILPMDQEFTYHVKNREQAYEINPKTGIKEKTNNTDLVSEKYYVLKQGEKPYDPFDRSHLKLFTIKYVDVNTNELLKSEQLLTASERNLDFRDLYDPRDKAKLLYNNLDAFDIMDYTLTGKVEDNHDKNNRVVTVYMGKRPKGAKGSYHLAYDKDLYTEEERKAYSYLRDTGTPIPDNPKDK
Kind of experiment: S. pyogenes streptokinase expression inhibitors, potency, dose response, plasminogen activation absorbance, OD405 (AID 1914).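 Further: secreted streptokinase activity via plasminogen activation per viability signal from cell pellet.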 The format is functional, Streptococcus pyogenes M1 GAS.

In experiment [18] the test system is Streptococcus sp. 'group A'. Briefly: growth inhibition of control SK(-) GAS strain, dose response, counter-screen for streptokinase expression inhibitor project, luminescence, kanamycin, BacTiterGlo, confirmation (AID 1900). In kind it is functional, organism-based.
The target in experiment [19] is Melanin-concentrating hormone receptor 1 (Homo sapiens, UniProt Q99705). Briefly: Fluorescence-based counterscreen for antagonists of the G-protein coupled receptor 7 (GPR7): cell-based high throughput dose response assay to identify antagonists of the melanin-concentrating hormone receptor 1 (MCHR1). In kind it is functional.
Experiment [20] concerns the target Eukaryotic translation initiation factor 4H (Homo sapiens, UniProt Q15056). Briefly: eIF4H inhibition in translation initiation, SAR follow-up (AID 435011). In kind it is functional.
The target of experiment [21] is Polyadenylate-binding protein 1 (Homo sapiens, UniProt P11940). Kind of experiment: PABP inhibition in translation initiation, SAR follow-up (AID 435018). In kind it is functional.
The next experiment has as its target Cytochrome P450 2C9 (Homo sapiens, UniProt P11712). The following applies: Potency.
Experiment [22] has as its target T5, Voltage-dependent T-type calcium channel subunit alpha-1H (Homo sapiens, UniProt O95180). Briefly: Inhibitors of T-Type Calcium Channels. [Related pubchem assays (depositor defined):AID449739, AID463087, AID489005, AID493041, AID504579, AID504584, AID504619, AID504628]. The format is functional.
The target of experiment [23] is T5, Voltage-dependent T-type calcium channel subunit alpha-1H. In kind it is functional.
In the next experiment the target is Aspartyl aminopeptidase (Plasmodium falciparum 3D7, UniProt Q8I2J3).
The target in a further experiment is Procathepsin L (Homo sapiens, UniProt P07711).
The target of experiment [24] is T6, Cytochrome P450 3A4 (Homo sapiens, UniProt P08684). The conditions noted are these: read-out: Potency.
The target in experiment [25] is T6, Cytochrome P450 3A4. The following applies: Potency.

Structures are written as SMILES. Active and inactive are the calls of the source. Where only a bound is given, the exact number is not on record here.

T5 sequence (O95180 whole entry): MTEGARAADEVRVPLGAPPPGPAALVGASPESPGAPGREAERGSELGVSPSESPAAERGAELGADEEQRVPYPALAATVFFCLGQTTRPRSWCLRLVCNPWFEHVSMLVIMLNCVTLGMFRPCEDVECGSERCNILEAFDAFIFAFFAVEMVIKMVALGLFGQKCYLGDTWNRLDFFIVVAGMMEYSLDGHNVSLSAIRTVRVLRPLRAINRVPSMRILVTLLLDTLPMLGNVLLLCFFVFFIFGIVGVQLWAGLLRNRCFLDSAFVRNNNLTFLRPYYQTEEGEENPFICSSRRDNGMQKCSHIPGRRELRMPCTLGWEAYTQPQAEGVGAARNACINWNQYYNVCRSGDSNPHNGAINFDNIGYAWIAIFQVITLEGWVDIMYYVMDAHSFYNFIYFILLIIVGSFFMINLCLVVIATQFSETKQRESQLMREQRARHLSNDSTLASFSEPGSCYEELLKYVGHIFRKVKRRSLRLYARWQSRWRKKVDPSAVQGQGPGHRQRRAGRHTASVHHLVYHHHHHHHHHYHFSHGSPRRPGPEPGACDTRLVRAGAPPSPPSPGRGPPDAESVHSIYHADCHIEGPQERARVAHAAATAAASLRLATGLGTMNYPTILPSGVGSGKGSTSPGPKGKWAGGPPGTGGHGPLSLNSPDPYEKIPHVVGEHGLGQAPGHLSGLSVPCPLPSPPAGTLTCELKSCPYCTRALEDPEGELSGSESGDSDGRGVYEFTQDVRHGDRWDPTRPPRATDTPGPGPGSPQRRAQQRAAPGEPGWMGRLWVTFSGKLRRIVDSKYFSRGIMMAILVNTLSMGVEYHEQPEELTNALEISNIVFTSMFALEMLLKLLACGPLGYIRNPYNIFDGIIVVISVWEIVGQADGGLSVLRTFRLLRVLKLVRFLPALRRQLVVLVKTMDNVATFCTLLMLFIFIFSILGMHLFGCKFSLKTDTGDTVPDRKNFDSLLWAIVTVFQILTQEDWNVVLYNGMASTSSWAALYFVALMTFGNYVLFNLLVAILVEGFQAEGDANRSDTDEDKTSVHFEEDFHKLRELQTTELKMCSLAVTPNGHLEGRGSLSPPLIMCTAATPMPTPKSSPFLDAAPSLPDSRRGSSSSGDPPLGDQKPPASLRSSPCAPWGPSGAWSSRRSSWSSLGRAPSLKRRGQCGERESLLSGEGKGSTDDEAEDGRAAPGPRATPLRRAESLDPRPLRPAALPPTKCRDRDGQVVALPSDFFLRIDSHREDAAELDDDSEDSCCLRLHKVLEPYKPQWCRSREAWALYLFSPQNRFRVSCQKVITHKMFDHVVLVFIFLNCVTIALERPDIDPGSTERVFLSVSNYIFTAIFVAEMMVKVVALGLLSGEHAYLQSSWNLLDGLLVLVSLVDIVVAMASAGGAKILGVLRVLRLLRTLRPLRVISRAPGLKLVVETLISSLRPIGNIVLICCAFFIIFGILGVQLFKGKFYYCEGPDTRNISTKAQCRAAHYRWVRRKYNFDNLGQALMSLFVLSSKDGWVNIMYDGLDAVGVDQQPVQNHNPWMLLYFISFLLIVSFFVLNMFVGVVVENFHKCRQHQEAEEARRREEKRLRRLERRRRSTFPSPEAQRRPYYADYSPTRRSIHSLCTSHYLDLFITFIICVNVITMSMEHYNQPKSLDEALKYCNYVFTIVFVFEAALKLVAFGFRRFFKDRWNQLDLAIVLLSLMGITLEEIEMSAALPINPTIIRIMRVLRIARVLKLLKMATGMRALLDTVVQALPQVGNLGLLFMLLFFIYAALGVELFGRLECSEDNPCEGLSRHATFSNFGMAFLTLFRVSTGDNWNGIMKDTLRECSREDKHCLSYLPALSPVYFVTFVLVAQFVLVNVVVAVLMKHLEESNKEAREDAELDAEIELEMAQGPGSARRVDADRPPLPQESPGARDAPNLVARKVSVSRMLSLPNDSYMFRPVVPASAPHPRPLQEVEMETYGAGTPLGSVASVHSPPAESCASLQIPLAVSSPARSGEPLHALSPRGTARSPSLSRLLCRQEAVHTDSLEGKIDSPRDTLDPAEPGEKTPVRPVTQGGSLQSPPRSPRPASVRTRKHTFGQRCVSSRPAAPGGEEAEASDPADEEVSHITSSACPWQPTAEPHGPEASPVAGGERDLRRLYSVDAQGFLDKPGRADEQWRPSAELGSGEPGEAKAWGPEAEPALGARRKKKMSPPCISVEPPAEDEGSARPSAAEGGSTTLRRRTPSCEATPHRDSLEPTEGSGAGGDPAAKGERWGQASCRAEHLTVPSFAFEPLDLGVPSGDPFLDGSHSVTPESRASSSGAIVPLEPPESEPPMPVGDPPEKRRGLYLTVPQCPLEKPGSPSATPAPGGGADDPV
T6 sequence (P08684 whole entry): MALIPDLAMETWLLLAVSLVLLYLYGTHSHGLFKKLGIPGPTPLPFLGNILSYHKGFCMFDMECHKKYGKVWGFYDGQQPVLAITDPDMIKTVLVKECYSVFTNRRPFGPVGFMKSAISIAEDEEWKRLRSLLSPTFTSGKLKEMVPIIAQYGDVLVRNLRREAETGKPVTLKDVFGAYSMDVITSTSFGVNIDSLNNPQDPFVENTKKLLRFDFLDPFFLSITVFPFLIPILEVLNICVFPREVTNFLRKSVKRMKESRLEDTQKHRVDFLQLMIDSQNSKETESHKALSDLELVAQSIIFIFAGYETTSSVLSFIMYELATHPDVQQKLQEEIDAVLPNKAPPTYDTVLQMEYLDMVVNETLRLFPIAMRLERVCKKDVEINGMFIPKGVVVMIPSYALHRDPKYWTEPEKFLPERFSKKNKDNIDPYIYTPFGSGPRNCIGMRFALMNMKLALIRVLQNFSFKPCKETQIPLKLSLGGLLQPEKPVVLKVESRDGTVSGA
Procathepsin L, sequence (P07711 whole entry): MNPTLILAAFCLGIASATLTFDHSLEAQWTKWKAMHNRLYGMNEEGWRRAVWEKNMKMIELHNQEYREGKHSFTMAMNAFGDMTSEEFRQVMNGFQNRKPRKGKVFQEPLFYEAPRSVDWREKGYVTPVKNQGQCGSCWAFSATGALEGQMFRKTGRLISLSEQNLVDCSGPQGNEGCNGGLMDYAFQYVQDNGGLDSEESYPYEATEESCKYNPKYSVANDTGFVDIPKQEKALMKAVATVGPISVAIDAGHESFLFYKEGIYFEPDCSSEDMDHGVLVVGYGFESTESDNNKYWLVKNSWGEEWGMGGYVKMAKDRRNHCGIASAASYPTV
Aspartyl aminopeptidase, sequence (Q8I2J3 whole entry): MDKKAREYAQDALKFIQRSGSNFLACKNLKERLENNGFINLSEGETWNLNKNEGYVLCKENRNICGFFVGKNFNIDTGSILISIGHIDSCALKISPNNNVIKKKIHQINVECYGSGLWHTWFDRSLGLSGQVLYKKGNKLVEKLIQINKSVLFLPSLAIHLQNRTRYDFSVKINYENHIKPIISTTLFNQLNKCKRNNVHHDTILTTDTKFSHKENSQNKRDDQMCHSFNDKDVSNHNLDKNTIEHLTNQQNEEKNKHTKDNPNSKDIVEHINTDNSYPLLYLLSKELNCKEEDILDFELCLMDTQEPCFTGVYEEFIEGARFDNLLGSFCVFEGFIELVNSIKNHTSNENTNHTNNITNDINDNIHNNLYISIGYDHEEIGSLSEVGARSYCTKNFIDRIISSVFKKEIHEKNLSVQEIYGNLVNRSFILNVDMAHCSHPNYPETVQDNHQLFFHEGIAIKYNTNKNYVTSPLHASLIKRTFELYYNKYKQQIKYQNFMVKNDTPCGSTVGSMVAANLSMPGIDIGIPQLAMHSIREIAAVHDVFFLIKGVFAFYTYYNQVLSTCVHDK
Glyceraldehyde-3-phosphate dehydrogenase, sequence (P04406 whole entry): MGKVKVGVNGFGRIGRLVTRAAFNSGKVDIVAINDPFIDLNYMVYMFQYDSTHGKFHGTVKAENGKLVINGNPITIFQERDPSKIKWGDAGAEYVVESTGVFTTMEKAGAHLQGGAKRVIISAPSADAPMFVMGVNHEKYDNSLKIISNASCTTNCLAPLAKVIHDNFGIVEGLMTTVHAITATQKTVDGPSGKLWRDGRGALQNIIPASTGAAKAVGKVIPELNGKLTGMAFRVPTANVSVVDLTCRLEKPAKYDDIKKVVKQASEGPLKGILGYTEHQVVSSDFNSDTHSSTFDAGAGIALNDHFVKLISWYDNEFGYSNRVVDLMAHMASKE
Intestinal-type alkaline phosphatase, sequence (P09923 whole entry): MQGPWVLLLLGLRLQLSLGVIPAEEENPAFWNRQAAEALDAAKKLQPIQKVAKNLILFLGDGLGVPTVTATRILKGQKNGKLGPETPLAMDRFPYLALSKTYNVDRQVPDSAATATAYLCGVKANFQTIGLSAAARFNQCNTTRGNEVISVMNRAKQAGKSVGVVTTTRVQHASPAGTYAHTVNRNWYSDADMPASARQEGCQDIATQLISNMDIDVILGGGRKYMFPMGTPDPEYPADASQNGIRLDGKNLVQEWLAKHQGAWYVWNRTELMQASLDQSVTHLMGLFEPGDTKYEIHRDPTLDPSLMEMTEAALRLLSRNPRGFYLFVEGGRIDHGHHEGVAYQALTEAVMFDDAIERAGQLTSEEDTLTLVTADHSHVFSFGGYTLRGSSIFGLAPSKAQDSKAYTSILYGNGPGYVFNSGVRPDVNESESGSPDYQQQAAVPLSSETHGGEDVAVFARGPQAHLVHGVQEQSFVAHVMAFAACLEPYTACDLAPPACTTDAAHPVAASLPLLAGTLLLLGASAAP

Regarding `Cc1ccc(C(=O)c2no[n+]([O-])c2C(=O)c2ccc(C)cc2)cc1`, the AC50 in experiment [1] was 2.37 µM (active); in experiment [3], 16.7 µM (active). Further, the EC50 in experiment [2] is 2.92 µM (active); in [4], 3.01 µM (active). The IC50 at Genome polyprotein is > 100 µM (active).

For the molecule `Cc1ccc(NCc2ccc([N+](=O)[O-])s2)cc1`, the AC50 in [5] was > 195 µM (inactive). Moreover, in experiment [6], the IC50 is > 100 µM (inactive).

Take `CCOC(=O)C1Nc2c(O)cccc2C2C=CCC12` (stereo not given): the IC50 in experiment [7] was > 100 µM (inactive); in [8] it was > 100 µM (not active); in [9], > 100 µM (inactive); in [10], > 100 µM (not active).

As to `O=C(Nc1ccc(N2CCN(C(=O)c3ccccc3)CC2)cc1)c1cc2ccccc2o1`, the AC50 in experiment [11] was 5.12 µM (active); in [12], 16.8 µM (active); in [13], 5.93 µM (active); in experiment [15], 45.5 µM (active). Besides, the EC50 in [14] is 24.4 µM (inactive).

For `Cc1ccc(/C=C/c2ccc(=O)n(Cc3ccccc3Cl)n2)cc1`, the EC50 in the experiment with Streptococcus [16] was > 50 µM (not active); in the experiment with Streptococcus [17], 10.7 µM (active); on Streptokinase A it was 10.2 µM (active); in [18], 6.69 µM (active).

Consider `Cc1ccccc1CC1(CO)CCCN(C(=O)c2cc(Cl)ccc2F)C1` (stereo not given), for which the IC50 in [19] is reported as > 14.6 µM (not active).

Turning to `COc1cc(C=NNC(=O)c2ccc(O)cc2)ccc1OCC(=O)Nc1cccc([N+](=O)[O-])c1`, the IC50 in [20] and in [21] was > 100 µM (inactive) throughout.

Regarding `COc1cccc(-c2cc(=O)c3cc(O)ccc3o2)c1`, the AC50 at Cytochrome P450 2C9 is 25.1 µM (inconclusive).

For the molecule `Cc1cccc(NC(=O)C23CCC(C)(C2Br)C3(C)C)c1` (stereo not given), the EC50 was 5.25 µM (active) in experiment [22] and 2.64 µM (active) in experiment [23].

For the molecule `Cc1cc(O)nc(SCC(=O)c2ccc(O)c(O)c2)n1`, the IC50 at Aspartyl aminopeptidase was 1.49 µM (active); on Procathepsin L, > 59.6 µM (not active).

In the case of `O=c1cccc2n1C[C@H]1CNC[C@H]2C1`, the AC50 at Cytochrome P450 3A4 [24] and at Cytochrome P450 3A4 [25] was 31.6 µM (inconclusive) throughout.
